In PubChem BioAssay (NCI):
“And” between values parts separate entries of the source, which are not always exact repeats. Identical values can stand only once.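 How tested: cells in 96-well plates exposed to compound for 48 hours at five concentrations. GI50 is the concentration that inhibits growth by half. TGI: concentration producing complete growth inhibition.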

Columns and labels:
Experiment in all cases: DTP human tumour cell line panel, 48 h
U251 CNS = system: U251 CNS
HL-60(TB) leukemia = system: HL-60(TB) leukemia
A549 NSCLC = system: A549 NSCLC
KM12 colon = system: KM12 colon
NCI-H522 lung = system: NCI-H522 lung
HCT-116 colon = system: HCT-116 colon
SK-OV-3 ovarian = system: SK-OV-3 ovarian
OVCAR-4 ovarian = system: OVCAR-4 ovarian
HCC-2998 colon = system: HCC-2998 colon
HOP-92 NSCLC = system: HOP-92 NSCLC

SMILES | TGI (U251 CNS) | TGI (HL-60(TB) leukemia) | TGI (A549 NSCLC) | TGI (KM12 colon) | TGI (NCI-H522 lung) | TGI (HCT-116 colon) | TGI (SK-OV-3 ovarian) | TGI (OVCAR-4 ovarian) | GI50 (U251 CNS) [µM] | GI50 (HL-60(TB) leukemia) [µM] | GI50 (A549 NSCLC) [µM] | GI50 (KM12 colon) [µM] | GI50 (HCC-2998 colon) [µM] | TGI (HCC-2998 colon) [µM] | GI50 (NCI-H522 lung) [µM] | GI50 (OVCAR-4 ovarian) [µM] | GI50 (HCT-116 colon) [µM] | GI50 (SK-OV-3 ovarian) [µM] | GI50 (HOP-92 NSCLC) [µM] | TGI (HOP-92 NSCLC) [µM]
COc1ccc(NC(=O)CC(=O)N/N=C(\C)c2cc3ccccc3oc2=O)cc1 | > 100 µM | > 100 µM | > 100 µM | > 100 µM | > 100 µM | > 100 µM | > 100 µM |  |  |  |  |  |  |  |  |  |  |  |  | 
Cc1ccc(N2C(=O)/C(=C/c3ccc(N(CCC#N)CCC#N)cc3)N=C2COc2ccc(Cl)cc2Cl)cc1 | > 100 µM | > 100 µM | > 100 µM | > 100 µM | > 100 µM | > 100 µM | > 100 µM | > 100 µM |  |  |  |  |  |  |  |  |  |  |  | 
O=c1cc(-c2ccccc2)[nH]c2c1CCCC2 | > 100 µM | > 100 µM | > 100 µM | > 100 µM | 6.71 µM | > 100 µM | > 100 µM | > 100 µM | 4.54 | 1.62 | 4.55 | 0.723 | 2.5 | 31.9 | 2 | 9.08 | 3.34 | 5.11 |  | 
CN1CCN(Cc2ccc(NC(=O)c3[nH]ncc3Nc3ncnc4[nH]ccc34)cc2)CC1 | 10.7 µM | 0.626 µM | 10.8 µM | 10.9 µM | 1.63 µM | 13.1 µM |  | 0.68 µM | 0.251 | 0.27 | 0.742 | 0.347 | 0.367 | 1.42 | 0.283 | 0.215 | 0.214 |  | 0.431 | 0.741
O=C1CC(c2cccc(Cl)c2)Oc2ccccc21 (configuration not stated) | > 100 µM | 57.1 µM |  | 39.5 µM |  | 31.3 µM | 46 µM | 94.1 µM |  |  |  |  |  | 35.7 |  |  |  |  |  | 42.2
C=C(C)[C@@H]1CCc2c(O)c(O)c(=O)cc(C)c2C1 | > 100 µM |  | > 100 µM | > 100 µM | > 96.6 µM | > 100 µM | > 100 µM | > 100 µM |  |  |  |  |  | > 100 |  |  |  |  |  | 17
O=C1C=CC(=O)c2c1ccc1c3ccccc3n(Cc3ccccc3)c21 | > 100 µM | 15.3 µM | > 100 µM | > 100 µM | 19.9 µM | 51.9 µM | > 100 µM | 18.1 µM |  |  |  |  |  | > 79.5 |  |  |  |  |  | 
NC1=NC(SCc2ccccc2CCl)c2ncn(Cc3ccccc3CCl)c2N1 (configuration not stated) | 2.82 µM |  | 5.01 µM | 3.6 µM |  | 3.06 µM | 13.9 µM | 10.2 µM | 1.45 |  | 2.04 | 1.74 |  |  |  | 2.83 | 1.47 | 3.87 | 1.1 | 2.39
COC(=O)C(=O)C(C(=O)C(=O)Nc1ccccc1[N+](=O)[O-])c1nc2ccc([N+](=O)[O-])cc2[nH]c1=O (configuration not stated) | > 100 µM | > 100 µM | > 100 µM | > 100 µM | > 100 µM | > 100 µM | > 100 µM | > 100 µM |  |  |  |  |  |  |  |  |  |  |  | > 100
COc1cc(/C=C/C(=O)CC(=O)/C=C/c2cc(OC)c(O)c(OC)c2)cc(OC)c1O | 25 µM and 36.1 µM | 25 µM and 42.6 µM | 25 µM and > 100 µM | 15.4 µM and 31.1 µM | 15 µM and 14 µM | 13.3 µM and > 100 µM | 24 µM and > 100 µM | 25 µM and > 100 µM |  |  | 16.6 | 13.5 |  | 11.6 | 3.75 | 29.5 | 17.2 | 32 |  | 
C=C(C(=O)OC)[C@@H]1CC2OC1C(=O)C(C)CCC/C(C)=C/CC[C@@]2(C)O (some centres not stated) | > 100 µM |  | 46 µM | > 100 µM | 48.4 µM | 26.2 µM | > 100 µM | > 100 µM | 36.7 |  | 20.1 | 23.8 |  |  | 19.1 | 37.9 | 13.4 | > 100 | 23.8 | 95.2
CC12CCC(=O)C(O1)C1C(=O)c3ccc4c(ccc5ccccc54)c3C(=O)C12 (configuration not stated) | 35.6 µM | 7.21 µM | 33.2 µM | 9.66 µM | 14.3 µM | 4.71 µM | > 39.1 µM | 3.01 µM | 18.8 | 1.66 | 9.34 | 4.99 |  |  | 5.52 | 1.4 | 3.03 | 11.5 | 7.1 | 32.3
CC(C)=Cc1cc(CCC/C(C)=C/Cc2c(O)cc(C)c(C(=O)O)c2O)co1 | > 100 µM |  | > 100 µM | > 100 µM | > 100 µM | > 100 µM |  | > 100 µM |  |  |  |  |  | > 100 |  |  |  |  |  | > 100
CC1CCCC(C#N)(NOC2=NCCN2)C1 (configuration not stated) | 78.7 µM | 93 µM | > 100 µM | > 100 µM | > 100 µM | > 100 µM |  | > 100 µM | 23.4 | 16.8 | 63.4 | 48.4 |  |  | 29 | 48.3 | 31.7 |  | 36.5 | 75.1
O=C1OC(=O)C23CSCC12C1C=CC3O1 (configuration not stated) | > 100 µM | > 100 µM | > 100 µM | > 100 µM | > 100 µM | > 100 µM | > 100 µM |  |  |  |  |  |  | > 100 |  |  |  |  |  | 
COc1cc(F)c(F)cc1C(=O)c1cnc(NC2CCN(S(C)(=O)=O)CC2)nc1N | 24.8 µM | 10 µM | > 25 µM | > 22.4 µM | > 25 µM | > 25 µM | > 25 µM | > 25 µM | 2.42 | 2.01 | 3.18 | 3.12 | 4.32 | > 25 | 4.67 | 6.4 | 2.16 | 10 |  | 
O=c1cc[nH]cc1-c1c[nH]ccc1=O | > 100 µM | > 100 µM | > 100 µM | > 100 µM | > 100 µM | > 100 µM | > 100 µM |  |  |  |  |  |  | > 100 |  |  |  |  |  | > 100
COc1ccc(-c2cc3ccccc3[nH]c2=O)cc1OC | > 100 µM | > 100 µM | > 100 µM | > 100 µM | > 100 µM | > 100 µM | > 100 µM | > 100 µM |  |  |  |  |  | > 100 |  |  |  |  |  | 
